Experimental data published in patent publication US11578056B2, “Solid forms comprising (S)-2-(2,6-dioxopiperidin-3-yl)-4-((2-fluoro-4-((3-morpholinoazetidin-1-yl)methyl)benzyl)amino)isoindoline-1,3-dione and salts thereof, and compositions comprising and methods of using the same” (Celgene Corporation, priority 2019, dated 2023).
pEC50, pIC50: −log10 of the molar value.

Experiments:
Assay in all cases: Hematological cell line viability/apoptosis flow cytometry assay
Format in all cases: cell-based
WA-C3-CD5+ cell line = details: WA-C3-CD5+ (CLL), 120 h
Protocol: (§1) Cell Proliferation and Viability Assay Using Hematological Cell Lines: The following exemplary anti-proliferative assay uses exemplary hematological cell lines in the following. The in vitro growth inhibitory activity of Compound 1 described herein was evaluated using a 384-well flow cytometry assay.
(§2) The cell lines were plated in 384-well flat bottom plates and assessed with increasing concentrations of compound ranging from 0.00015 to 10 μM or dimethyl sulfoxide (DMSO) control. The final concentration of DMSO was 0.1% (v/v). Following the addition of Compound 1 or DMSO and incubation for 120 hours, cell number and cell death were analyzed by flow cytometry (Attune®, Thermo Fisher) using Annexin V and the live-cell impermeant DNA dye, DRAQ7. Phosphatidylserine translocates from the inner layer to the outer layer of the cell membrane early in apoptosis and Annexin V binds to the exposed phosphatidylserine found on the surface of an apoptotic cell. The vital dye DRAQ7 is excluded by intact live cells and only stains cells that have died as a result of apoptosis or necrosis.
(§3) Flow cytometry data analysis was then performed using the Flow Jo_v10 software to determine the number of viable cells (Annexin V and DRAQ7 double negative staining cells) and percentage of apoptotic cells (Annexin V positive cells) for each condition. The live cell count for every concentration was normalized to the DMSO control (considered as 100%) to calculate the percentage of viable cells remaining after treatment and graphed using GraphPad Prism 7.03. The IC50 (50% inhibitory concentration) and Emax (maximum efficacy achieved) values were then calculated by performing nonlinear regression curve fitting using log(inhibitor) vs. normalized response—variable slope analysis on GraphPad Prism 7.03. Area under the curve (AUC) was calculated by performing area under curve analysis on GraphPad Prism 7.03. Similarly, for apoptosis analysis, the percentage of apoptosis combining both “early” (Annexin V positive and DRAQ7 negative) and “late” apoptosis (Annexin V and DRAQ7 positive) cell gates relative to DMSO was graphed using GraphPad Prism 7.03. The AUC, EC50 (concentration of compound that produces half-maximal apoptosis response) and Ymax (maximal percentage of apoptosis achieved) values from apoptosis curves were calculated by performing area under curve analysis and nonlinear regression curve fitting using log(agonist) vs. normalized response—Variable slope analysis on GraphPad Prism 7.03.
(§4) Dose-response proliferation curves for the panel of hematological cell lines and non-linear curve-fit regression were used to determine IC50, AUC, and Emax for % viable cells (Emax for viability varies between 100 at low doses and 0 at high doses, which corresponds to inhibition of all viable cells), and dose-response apoptosis curves were used to determine the EC50, AUC, and Ymax for % apoptosis (Ymax for apoptosis varies from 0 at low doses and 100 at higher doses which corresponds to death of all cells). Tumor cells were exposed to serial dilutions (0.00015 to 10 μM) of Compound 1 or dimethyl sulfoxide (DMSO) control for 5 days. Viability and apoptosis for all cell lines was determined by Annexin V/7-aminoactinomycin D (7-AAD) flow cytometry.

RL cell line = details: RL (FL); 120 h
Protocol: as §1, §2, §3, §4

SU-DHL-16 cell line = details: SU-DHL-16 (DLBCL GCB); 120 h
Protocol: as §1, §2, §3, §4

DB cell line = details: 120 h
Protocol: as §1, §2, §3, §4

I83-E95 cell line = details: I83-E95 (CLL), 120 h
Protocol: as §1, §2, §3, §4

WSU-DLCL cell line = details: WSU-DLCL (DLBCL GCB), 120 h
Protocol: as §1, §2, §3, §4

SU-DHL-2 cell line = details: SU-DHL-2 (DLBCL ABC); 120 h
Protocol: as §1, §2, §3, §4

Farage cell line = details: Farage (DLBCL PMBL); 120 h
Protocol: as §1, §2, §3, §4

L-363 cell line = details: L-363 (MM, PCL), 120 h
Protocol: as §1, §2, §3, §4

U-2904 cell line = details: U-2904 (DLBCL), 120 h
Protocol: as §1, §2, §3, §4

NCI-H929 cell line = details: NCI-H929 (MM), 120 h
Protocol: as §1, §2, §3, §4

Rec-1 cell line = details: Rec-1 (MCL); 120 h
Protocol: as §1, §2, §3, §4

Mec2 cell line = details: Mec2 (CLL), 120 h
Protocol: as §1, §2, §3, §4

[1] = Homo sapiens, read-out: % Viable Cells IC50

O=C1CC[C@H](N2C(=O)c3cccc(NCc4ccc(CN5CC(N6CCOCC6)C5)cc4F)c3C2=O)C(=O)N1 [Compound 1, (S)-2-(2,6-dioxopiperidin-3-yl)-4-((2-fluoro-4-((3-morpholinoazetidin-1-yl)methyl)benzyl)amino)isoindoline-1,3-dione]
% Viable Cells AUC (WA-C3-CD5+ cell line): 474.8 | % Viable Cells Emax (WA-C3-CD5+ cell line): 44.2% | Apoptosis AUC (WA-C3-CD5+ cell line): 162.9 | Apoptosis Ymax (WA-C3-CD5+ cell line): 17.47% | pEC50 (WA-C3-CD5+ cell line): 7.28 | pIC50 (WA-C3-CD5+ cell line; read-out: % Viable Cells IC50): 6.28 | % Viable Cells AUC (RL cell line): 234.8 | % Viable Cells Emax (RL cell line): 21.55% | Apoptosis AUC (RL cell line): 115.9 | Apoptosis Ymax (RL cell line): 13.93% | % Viable Cells AUC (SU-DHL-16 cell line): 149.7 | % Viable Cells Emax (SU-DHL-16 cell line): 7.137% | Apoptosis AUC (SU-DHL-16 cell line): 492.6 | Apoptosis Ymax (SU-DHL-16 cell line): 60.79% | % Viable Cells AUC (DB cell line): 941.4 | % Viable Cells Emax (DB cell line): 89.46% | Apoptosis AUC (DB cell line): 80.31 | Apoptosis Ymax (DB cell line): 11.62% | pIC50 (DB cell line; [1]): < 5.00 | % Viable Cells AUC (I83-E95 cell line): 259.2 | % Viable Cells Emax (I83-E95 cell line): 21.6% | Apoptosis AUC (I83-E95 cell line): 358.4 | Apoptosis Ymax (I83-E95 cell line): 40.69% | pEC50 (I83-E95 cell line): 7.21 | pIC50 (I83-E95 cell line; read-out: % Viable Cells IC50): 7.76 | % Viable Cells AUC (WSU-DLCL cell line): 341.9 | % Viable Cells Emax (WSU-DLCL cell line): 27.83% | Apoptosis AUC (WSU-DLCL cell line): 565.1 | Apoptosis Ymax (WSU-DLCL cell line): 59.91% | pEC50 (WSU-DLCL cell line): 7.74 | pIC50 (WSU-DLCL cell line; read-out: % Viable Cells IC50): 6.85 | % Viable Cells AUC (SU-DHL-2 cell line): 5.586 | % Viable Cells Emax (SU-DHL-2 cell line): 0.2145% | Apoptosis AUC (SU-DHL-2 cell line): 928.4 | Apoptosis Ymax (SU-DHL-2 cell line): 95.98% | % Viable Cells AUC (Farage cell line): 10.16 | % Viable Cells Emax (Farage cell line): 0.7936% | Apoptosis AUC (Farage cell line): 728.7 | Apoptosis Ymax (Farage cell line): 84.17% | pEC50 (L-363 cell line; Homo sapiens): 5.10 | pIC50 (L-363 cell line; [1]): 9.00 | % Viable Cells AUC (L-363 cell line): 309.1 | % Viable Cells Emax (L-363 cell line): 27.6% | Apoptosis AUC (L-363 cell line): 2.954 | Apoptosis Ymax (L-363 cell line): 2% | % Viable Cells AUC (U-2904 cell line): 334.1 | % Viable Cells Emax (U-2904 cell line): 7.609% | Apoptosis AUC (U-2904 cell line): 456.1 | Apoptosis Ymax (U-2904 cell line): 77.39% | pEC50 (U-2904 cell line): 5.48 | pIC50 (U-2904 cell line; read-out: % Viable Cells IC50): 6.70 | pEC50 (NCI-H929 cell line; Homo sapiens): 4.95 | pIC50 (NCI-H929 cell line; [1]): 9.15 | % Viable Cells AUC (NCI-H929 cell line): 215.5 | % Viable Cells Emax (NCI-H929 cell line): 6.1% | Apoptosis AUC (NCI-H929 cell line): 16.86 | Apoptosis Ymax (NCI-H929 cell line): 7.00% | % Viable Cells AUC (Rec-1 cell line): 281.8 | % Viable Cells Emax (Rec-1 cell line): 21.04% | Apoptosis AUC (Rec-1 cell line): 508.5 | Apoptosis Ymax (Rec-1 cell line): 57.27% | % Viable Cells AUC (Mec2 cell line): 312.5 | % Viable Cells Emax (Mec2 cell line): 25.55% | Apoptosis AUC (Mec2 cell line): 339.8 | Apoptosis Ymax (Mec2 cell line): 35.28% | pEC50 (Mec2 cell line): 7.88 | pIC50 (Mec2 cell line; read-out: % Viable Cells IC50): 7.12
